What was measured:
Format in all cases: toxicity, cell-based
Fibroblast = test: Incucyte cell viability with human fibroblast; details: 10 µM, compound concentration 10 uM
HEK-293T = test: Incucyte cell viability with HEK293T; details: human, 10 µM, compound concentration 10 uM
U2OS = test: Incucyte cell viability with U2OS; details: human, 10 µM, compound concentration 10 uM
Also: unitless GR value; below 1 slowed growth and below 0 cell loss.

Row | SMILES | Growth Rate (Fibroblast; 6 h, replicate number 2) | Growth Rate (Fibroblast; 12 h, replicate number 2) | Growth Rate (Fibroblast; 18 h, replicate number 2) | Growth Rate (HEK-293T; 6 h, replicate number 1) | Growth Rate (HEK-293T; 12 h, replicate number 1) | Growth Rate (HEK-293T; 12 h, replicate number 2) | Growth Rate (HEK-293T; 18 h, replicate number 1) | Growth Rate (HEK-293T; 18 h, replicate number 2) | Growth Rate (HEK-293T; 24 h, replicate number 1) | Growth Rate (HEK-293T; 24 h, replicate number 2) | Growth Rate (U2OS; 24 h, replicate number 1) | Growth Rate (Fibroblast; 6 h, replicate number 1) | Growth Rate (Fibroblast; 18 h, replicate number 1) | Growth Rate (Fibroblast; 24 h, replicate number 1) | Growth Rate (U2OS; 6 h, replicate number 1) | Growth Rate (U2OS; 12 h, replicate number 1) | Growth Rate (U2OS; 12 h, replicate number 2) | Growth Rate (U2OS; 18 h, replicate number 1) | Growth Rate (U2OS; 18 h, replicate number 2) | Growth Rate (U2OS; 24 h, replicate number 2) | other results
1 | Cc1c(NC(=O)c2ccc(C(C)(C)C)cc2)cccc1-c1cn(C)c(=O)c(Nc2ccc(C(=O)N3CCOCC3)cc2)n1 | -0.1 | 0.63 | 0.72 | 0.48 | 0.38 | 0.51 | 0.53 | 0.35 | 0.63 | 0.48 | 0.97 |  |  |  |  |  |  |  |  |  | 
2 | CC1=C(C(=O)OCCO)[C@@H](c2ccc(C#N)cc2)NC(=O)N1c1cccc(C(F)(F)F)c1 |  |  | 0.92 | 0.61 | 0.73 | 0.75 | 0.68 | 0.71 | 0.67 | 0.97 |  |  |  |  |  |  |  |  |  |  | Growth Rate (Fibroblast; 0 h, replicate number 2): -0.51; Growth Rate (U2OS; 0 h, replicate number 2): 0.55
3 | O=C(CCCCCCc1ccccc1)c1ncc(-c2ccccn2)o1 | 0.12 | 0.63 | 0.85 | 0.7 | 0.79 | 0.88 | 0.76 | 0.88 | 0.8 | 0.97 | 0.87 | 0.4 | 0.96 | 0.93 | 0.84 | 0.58 |  |  |  |  | Growth Rate (Fibroblast; 0 h, replicate number 1): -0.98; Growth Rate (Fibroblast; 24 h, replicate number 2): 0.84; Growth Rate (U2OS; 0 h, replicate number 1): 0.55
4 | COc1ccccc1N1CCN(c2ncnc3c2cnn3-c2ccccc2)CC1 |  | 0.94 |  | 0.67 | 0.99 | 0.98 |  |  |  |  | 0.25 | -0.03 | 0.39 | 0.48 |  | 0.47 | 0.93 | 0.13 | 1 | 0.85 | Growth Rate (Fibroblast; 0 h, replicate number 2): 0; Growth Rate (Fibroblast; 12 h, replicate number 1): 0.42; Growth Rate (Fibroblast; 24 h, replicate number 2): 0.91; Growth Rate (HEK-293T; 6 h, replicate number 2): 0.19; Growth Rate (U2OS; 0 h, replicate number 1): 0.75
5 | CNc1nc(-c2cc(C(=O)N3CCN(Cc4ccc(Cl)cc4)CC3)c(Cl)cn2)cs1 | -0.96 | -0.28 | -0.12 | 0.91 | 0.62 | 0.01 | 0.62 | 0.14 | 0.69 | 0.23 | 0.37 | -0.5 | -0.06 | 0.23 | -0.33 | 0.1 | 0.27 | 0.4 | 0.37 | 0.65 | Growth Rate (Fibroblast; 0 h, replicate number 1): -1; Growth Rate (Fibroblast; 12 h, replicate number 1): -0.19; Growth Rate (Fibroblast; 24 h, replicate number 2): 0.18; Growth Rate (HEK-293T; 6 h, replicate number 2): -0.49; Growth Rate (U2OS; 0 h, replicate number 1): -0.54; Growth Rate (U2OS; 0 h, replicate number 2): -0.41; Growth Rate (U2OS; 6 h, replicate number 2): -0.21
6 | Cc1cc(-c2ccnc(Nc3cnn(C)c3)n2)ccc1CNC(=O)N1CC(OC(C)C)C1 |  |  |  | 0.37 | 0.72 |  | 0.79 |  | 0.98 |  | 0.89 | 0.47 | 0.97 | 0.75 | 0.99 | 0.8 |  | 0.98 |  |  | Growth Rate (Fibroblast; 0 h, replicate number 2): -0.87; Growth Rate (U2OS; 6 h, replicate number 2): 0.93
7 | COc1cc(C(=O)NCCOCCOCCOCC(=O)N[C@H](C(=O)N2C[C@H](O)C[C@H]2C(=O)NCc2ccc(-c3scnc3C)cc2)C(C)(C)C)ccc1Nc1ncc(C(F)(F)F)c(Oc2cccc3c2C(=O)CC3)n1 | -0.8 | 0.43 | 0.85 | 0.29 | -0.01 | 0.02 | 0 | -0.01 | 0.03 | -0.02 | 0.61 | 0.15 | 0.28 | 0.14 |  |  | 0.87 |  | 0.66 | 0.68 | Growth Rate (Fibroblast; 0 h, replicate number 2): 0.72; Growth Rate (Fibroblast; 12 h, replicate number 1): 0.45; Growth Rate (Fibroblast; 24 h, replicate number 2): 0.84; Growth Rate (U2OS; 0 h, replicate number 2): 0.63
8 | C[C@]12CC[C@@H]3c4ccc(O)cc4CC[C@H]3[C@@H]1C[C@H]1OC(=O)C[C@]12O | -0.98 | -0.36 | 0.13 | 0.27 | 0.37 | 0.34 | 0.36 | 0.67 | 0.53 | 0.86 | 0.6 | 0.09 | 0.55 | 0.77 | 0.43 | 0.21 | 0.26 | 0.38 | 0.65 | 0.72 | Growth Rate (Fibroblast; 0 h, replicate number 1): -1; Growth Rate (Fibroblast; 12 h, replicate number 1): 0.52; Growth Rate (Fibroblast; 24 h, replicate number 2): 0.48; Growth Rate (U2OS; 0 h, replicate number 1): 0.82; Growth Rate (U2OS; 0 h, replicate number 2): 0.2; Growth Rate (U2OS; 6 h, replicate number 2): -0.19
9 | O=C1CN(c2ccccc2F)C(NCCN2CCOCC2)=C1c1nc2cc(Br)ccc2c(=O)[nH]1 |  |  |  | 0.22 | 0.49 | 1 | 0.53 |  | 0.74 | 0.88 | 0.89 |  |  |  | 0.56 | 0.85 | 0.96 | 1 |  | 0.96 | Growth Rate (Fibroblast; 0 h, replicate number 2): -0.37; Growth Rate (HEK-293T; 6 h, replicate number 2): 0.74; Growth Rate (U2OS; 0 h, replicate number 1): 0.24
10 | Cc1ccc2c(NS(=O)(=O)c3ccccc3Cl)cccc2c1Oc1ncccc1-c1ccnc(N[C@H]2CCCNC2)n1.Cl |  | 0.45 | 0.38 | 0.95 | 0.33 | 0.52 | 0.5 | 0.6 | 0.48 | 0.55 | 0.55 | 0.69 | 0.34 | 0.3 | 0.4 | 0.68 | 0.62 | 0.69 | 0.57 | 0.58 | Growth Rate (Fibroblast; 0 h, replicate number 1): -1; Growth Rate (Fibroblast; 12 h, replicate number 1): 0.21; Growth Rate (Fibroblast; 24 h, replicate number 2): 0.49; Growth Rate (U2OS; 0 h, replicate number 1): 0.22; Growth Rate (U2OS; 0 h, replicate number 2): 0.32; Growth Rate (U2OS; 6 h, replicate number 2): 0.75
11 | CCS(=O)(=O)Nc1cccc(Oc2cc(F)cc(Nc3ccc(I)cc3F)c2NS(=O)(=O)C2CC2)c1 | -0.17 |  |  | 0.37 | 0.34 | 0.42 | 0.6 | 0.5 | 0.61 | 0.48 | 0.78 | 0.24 |  |  | 0.85 | 0.89 | 0.78 | 0.91 | 1 |  | Growth Rate (Fibroblast; 0 h, replicate number 1): -1; Growth Rate (Fibroblast; 0 h, replicate number 2): 0.69; Growth Rate (HEK-293T; 6 h, replicate number 2): -0.1
12 | CC(C)Nc1ncnc2cc(OCc3cccc([S@@](C)(=N)=O)c3)c(Br)cc12 |  |  |  | 0.65 | 0.67 | 0.73 | 0.82 | 0.81 | 0.82 | 0.87 | 0.93 |  |  |  |  |  |  |  |  |  | Growth Rate (Fibroblast; 0 h, replicate number 1): -0.74; Growth Rate (HEK-293T; 6 h, replicate number 2): 0.3
13 | COc1cc(-c2cc([C@H](O)C3CC3)n3ncnc(N)c23)ccc1CO |  |  |  | -0.7 | 0.16 | 0.26 | 0.62 | 0.76 | 0.74 | 0.87 | 0.8 |  |  |  |  |  | 0.85 |  | 0.89 | 0.91 | Growth Rate (Fibroblast; 0 h, replicate number 2): 0.98; Growth Rate (Fibroblast; 24 h, replicate number 2): 0.98; Growth Rate (HEK-293T; 6 h, replicate number 2): -0.8
14 | CCC(C(=O)Nc1ccc(-c2cc3ccccc3s2)c(C(N)=O)c1)c1nccs1 (stereo not given) | -0.79 |  | 0.9 | 0.31 | 0.59 | 0.52 | 0.48 | 0.61 | 0.47 | 0.71 | 0.72 | 0.22 | 0.93 | 0.96 | 0.65 | 0.41 | 0.59 | 0.47 | 0.8 | 0.86 | Growth Rate (Fibroblast; 12 h, replicate number 1): 0.72; Growth Rate (HEK-293T; 6 h, replicate number 2): 0.23; Growth Rate (U2OS; 0 h, replicate number 1): 0.65; Growth Rate (U2OS; 6 h, replicate number 2): 0.92
